Results published in ChEMBL document CHEMBL1201862, “PubChem BioAssay data set” (2004).
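Each compound was tested at five concentrations against cells in 96-well plates for 48 hours. The concentration for 50% growth inhibition is given as GI50.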 Active and inactive are the calls of the source. Cut-off read from the data, not from the text of the source: active = GI50 up to about 1.1 µM and inactive = higher.

Columns and labels:
Assay in all cases: inhibition of tumour cell growth, NCI panel, 48 h
HCT-15 = tested on: HCT-15
SF-268 = tested on: SF-268
OVCAR-4 = tested on: OVCAR-4
IGROV-1 = tested on: IGROV-1
MCF7 = tested on: MCF7
SR = tested on: SR
HCC 2998 = tested on: HCC 2998
BT-549 = tested on: BT-549
SK-MEL-5 = tested on: SK-MEL-5
LOX IMVI = tested on: LOX IMVI
SW-620 = tested on: SW-620
HL-60 = tested on: HL-60
A549 = tested on: A549
SK-OV-3 = tested on: SK-OV-3
RPMI-8226 = tested on: RPMI-8226
NCI-H522 = tested on: NCI-H522
EKVX = tested on: EKVX
RXF 393 = tested on: RXF 393
K562 = tested on: K562
HOP-92 = tested on: HOP-92

Row | SMILES | GI50 (HCT-15) [µM] | GI50 (SF-268) | GI50 (OVCAR-4) | GI50 (IGROV-1) | GI50 (MCF7) | GI50 (SR) | GI50 (HCC 2998) | GI50 (BT-549) | GI50 (SK-MEL-5) | GI50 (LOX IMVI) | GI50 (SW-620) | GI50 (HL-60) | GI50 (A549) | GI50 (SK-OV-3) | GI50 (RPMI-8226) | GI50 (NCI-H522) | GI50 (EKVX) | GI50 (RXF 393) | GI50 (K562) | GI50 (HOP-92)
1 | CCCCc1ccc(-n2sc3ncccc3c2=O)cc1 | 5.52 | 8.75 µM (inactive) | 13.6 µM (inactive) | 12.3 µM (inactive) | 23.8 µM (inactive) | 4.72 µM (inactive) | 5.35 µM (inactive) | 19.1 µM (inactive) | 11.3 µM (inactive) | 5.66 µM (inactive) | 13.9 µM (inactive) | 0.908 µM (active) | 14 µM (inactive) | 26.9 µM (inactive) | 8.02 µM (inactive) | 2.58 µM (inactive) | 11.1 µM (inactive) | – | – | –
2 | Nc1ccc2c(c1)nc1n2C(c2c(F)cccc2F)SC1 (stereo not given) | > 100 | > 100 µM (inactive) | > 100 µM (inactive) | > 100 µM (inactive) | > 100 µM (inactive) | > 100 µM (inactive) | > 100 µM (inactive) | > 100 µM (inactive) | 47.8 µM (inactive) | > 100 µM (inactive) | > 100 µM (inactive) | 48.5 µM (inactive) | > 100 µM (inactive) | > 100 µM (inactive) | > 100 µM (inactive) | > 100 µM (inactive) | > 100 µM (inactive) | > 100 µM (inactive) | > 100 µM (inactive) | –
3 | CCOC(=O)C1C(O)CC2c3ccccc3-c3ccccc3C21 (stereo not given) | > 100 | 31.4 µM (inactive) | > 100 µM (inactive) | 47.1 µM (inactive) | 49.5 µM (inactive) | > 100 µM (inactive) | – | > 100 µM (inactive) | 50.5 µM (inactive) | > 100 µM (inactive) | 48.4 µM (inactive) | > 100 µM (inactive) | 44.9 µM (inactive) | 21.2 µM (inactive) | > 100 µM (inactive) | 35.4 µM (inactive) | > 100 µM (inactive) | 29.3 µM (inactive) | 96.2 µM (inactive) | 20.1 µM (inactive)
4 | NC(=O)NNc1nc(-c2ccccc2)cs1 | > 100 | > 100 µM (inactive) | > 100 µM (inactive) | > 100 µM (inactive) | > 100 µM (inactive) | > 100 µM (inactive) | > 100 µM (inactive) | > 100 µM (inactive) | > 100 µM (inactive) | > 100 µM (inactive) | > 100 µM (inactive) | – | > 100 µM (inactive) | > 100 µM (inactive) | > 100 µM (inactive) | > 100 µM (inactive) | > 100 µM (inactive) | > 100 µM (inactive) | > 100 µM (inactive) | –
5 | COc1ccc2nc3cc(Cl)ccc3c(NCCCN(Cc3cc(OC)c(OC)c(OC)c3)Cc3cc(OC)c(OC)c(OC)c3)c2c1 | > 10 | 13.5 µM (inactive) | – | 15.3 µM (inactive) | 13.6 µM (inactive) | 2.31 µM (inactive) | 14.3 µM (inactive) | 14.1 µM (inactive) | 1.29 µM (inactive) | – | 1.14 µM (inactive) | – | 14.6 µM (inactive) | 17.1 µM (inactive) | 3.07 µM (inactive) | 9.48 µM (inactive) | 13.5 µM (inactive) | 3.38 µM (inactive) | 1.19 µM (inactive) | 10.1 µM (inactive)
